Data as given in patent publication US9650395B2, “Antibacterial compounds and methods for use” (PTC Therapeutics, Inc., priority 2011, dated 2017).
In brackets after ≈: the same amount, converted by molar mass. Where two headings read alike, the source gives them in different places.

Experiments:
[1] = tested on: super sensitive Gram-negative Escherichia coli (E. coli) BAS849; assay: Antibacterial activity, microbroth dilution MIC, E. coli BAS849; format: cell-based; settings: Escherichia coli, read-out: MIC, BAS849
[2] = tested on: control Gram-negative E. coli 25922 strain; assay: Antibacterial activity, microbroth dilution MIC, E. coli 25922; format: cell-based, Escherichia coli; settings: Escherichia coli; E. coli 25922, microbroth dilution; read-out: MIC, 25922
[3] = tested on: Gram-positive Staphylococcus aureus (S. aureus) 29213; assay: Antibacterial activity, microbroth dilution MIC, S. aureus 29213; format: cell-based; settings: Staphylococcus aureus; S. aureus 29213, microbroth dilution; read-out: MIC, 29213
[4] = tested on: quinolone resistant E. coli LZ3111; assay: Antibacterial activity, MIC, quinolone resistant E. coli LZ3111; format: cell-based, Escherichia coli; settings: Escherichia coli, read-out: MIC, LZ3111
Description: The antibacterial activity from a microbroth dilution method may be presented as the minimum inhibitory concentration (MIC in […]). The MIC value is the lowest concentration of a drug which prevents macroscopically visible bacterial growth under test conditions.
Mutations in these regions are known to confer a high level resistance to the quinolone class of antibiotics.

[5] = tested on: E. coli ELZ4000 (MDR clinical isolate); assay: Antibacterial activity, MIC, MDR E. coli ELZ4000; format: cell-based, Escherichia coli; settings: Escherichia coli; E. coli ELZ4000, MDR clinical isolate; read-out: MIC ELZ4000
[6] = tested on: E. coli ELZ4251 (MDR clinical isolate); assay: Antibacterial activity, MIC, MDR E. coli ELZ4251; format: cell-based, Escherichia coli; settings: Escherichia coli, E. coli ELZ4251, MDR clinical isolate; read-out: MIC ELZ4251
[7] = E. coli BAS849, microbroth dilution

SMILES	MIC [1, 7] [µg/mL]	MIC [2] [µg/mL]	MIC [3] [µg/mL]	MIC [4] [µg/mL]	MIC [5] [µg/mL]	MIC [6] [µg/mL]	MIC [1] [µg/mL]
CCc1cc(C(=O)O)c(=O)[nH]c1-c1ccc(OC)cc1 [Cpd 24, 5-ethyl-6-(4-methoxyphenyl)-2-oxo-1,2-dihydropyridine-3-carboxylic acid]	< 1	3.5 to 12.5 (≈ 12.8 to 45.7 µM)	12.5 to 150 (≈ 45.7 to 549 µM)	12.5 to 150 (≈ 45.7 to 549 µM)	12.5 to 150 (≈ 45.7 to 549 µM)	12.5 to 150 (≈ 45.7 to 549 µM)	–
CCc1cc(C(=O)O)c(=O)[nH]c1-c1ccc(N2CC[C@H](N=[N+]=[N-])C2)cc1 [Cpd 130, 6-{4-[(3S)-3-azidopyrrolidin-1-yl]phenyl}-5-ethyl-2-oxo-1,2-dihydropyridine-3-carboxylic acid]	< 1	1 to 3.5 (≈ 2.83 to 9.9 µM)	3.5 to 12.5 (≈ 9.9 to 35.4 µM)	12.5 to 150 (≈ 35.4 to 424 µM)	12.5 to 150 (≈ 35.4 to 424 µM)	12.5 to 150 (≈ 35.4 to 424 µM)	–
CCc1c(-c2ccc(N3CCC(CN(C)Cc4ccccc4)C3)cc2)[nH]c(=O)c(C(=O)O)c1O (centres unmarked) [Cpd 255, 6-[4-(3-{[benzyl(methyl)amino]methyl}pyrrolidin-1-yl)phenyl]-5-ethyl-4-hydroxy-2-oxo-1,2-dihydropyridine-3-carboxylic acid]	3.5 to 12.5 (≈ 7.58 to 27.1 µM)	12.5 to 150 (≈ 27.1 to 325 µM)	3.5 to 12.5 (≈ 7.58 to 27.1 µM)	12.5 to 150 (≈ 27.1 to 325 µM)	–	–	–
CCc1c(-c2ccc(N3C[C@H]4CNC[C@H]4C3)cc2)[nH]c(=O)c(C(=O)O)c1O.Cl [Cpd 274, 5-ethyl-6-{4-[(3aR,6aS)-hexahydropyrrolo[3,4-c]pyrrol-2(1H)-yl]phenyl}-4-hydroxy-2-oxo-1,2-dihydropyridine-3-carboxylic acid hydrochloride]	1 to 3.5	12.5 to 150	12.5 to 150	12.5 to 150	–	–	–
CCc1c(-c2ccc(N3CCC4(CCNCC4)C3)cc2)[nH]c(=O)c(C(=O)O)c1O.Cl [Cpd 278, 6-[4-(2,8-diazaspiro[4.5]dec-2-yl)phenyl]-5-ethyl-4-hydroxy-2-oxo-1,2-dihydropyridine-3-carboxylic acid hydrochloride]	< 1	3.5 to 12.5	3.5 to 12.5	12.5 to 150	–	–	–
CCc1c(-c2ccc(N3CCC(O)CC3)cc2)[nH]c(=O)c(C(=O)O)c1O [Cpd 280, 5-ethyl-4-hydroxy-6-[4-(4-hydroxypiperidin-1-yl)phenyl]-2-oxo-1,2-dihydropyridine-3-carboxylic acid]	< 1	12.5 to 150 (≈ 34.9 to 419 µM)	12.5 to 150 (≈ 34.9 to 419 µM)	12.5 to 150 (≈ 34.9 to 419 µM)	–	–	–
CCc1c(-c2ccc(N3CCC(OCc4ccccc4)CC3)cc2)[nH]c(=O)c(C(=O)O)c1O [Cpd 281, 6-{4-[4-(benzyloxy)piperidin-1-yl]phenyl}-5-ethyl-4-hydroxy-2-oxo-1,2-dihydropyridine-3-carboxylic acid]	3.5 to 12.5 (≈ 7.8 to 27.9 µM)	12.5 to 150 (≈ 27.9 to 334 µM)	12.5 to 150 (≈ 27.9 to 334 µM)	12.5 to 150 (≈ 27.9 to 334 µM)	–	–	–
CCc1c(-c2ccc(N3CCC(OC)CC3)cc2)[nH]c(=O)c(C(=O)O)c1O [Cpd 282, 5-ethyl-4-hydroxy-6-[4-(4-methoxypiperidin-1-yl)phenyl]-2-oxo-1,2-dihydropyridine-3-carboxylic acid]	< 1	12.5 to 150 (≈ 33.6 to 403 µM)	12.5 to 150 (≈ 33.6 to 403 µM)	12.5 to 150 (≈ 33.6 to 403 µM)	–	–	–
CCc1c(-c2ccc(N3CCC(N(Cc4ccccc4)Cc4ccccc4)CC3)cc2)[nH]c(=O)c(C(=O)O)c1O [Cpd 283, 6-{4-[4-(dibenzylamino)piperidin-1-yl]phenyl}-5-ethyl-4-hydroxy-2-oxo-1,2-dihydropyridine-3-carboxylic acid]	3.5 to 12.5 (≈ 6.51 to 23.2 µM)	12.5 to 150 (≈ 23.2 to 279 µM)	12.5 to 150 (≈ 23.2 to 279 µM)	12.5 to 150 (≈ 23.2 to 279 µM)	–	–	–
CCc1c(-c2ccc(N3CCC(N)CC3)cc2)[nH]c(=O)c(C(=O)O)c1O [Cpd 284, 6-[4-(4-aminopiperidin-1-yl)phenyl]-5-ethyl-4-hydroxy-2-oxo-1,2-dihydropyridine-3-carboxylic acid]	3.5 to 12.5 (≈ 9.79 to 35 µM)	12.5 to 150 (≈ 35 to 420 µM)	12.5 to 150 (≈ 35 to 420 µM)	12.5 to 150 (≈ 35 to 420 µM)	–	–	–
CCc1c(-c2ccc(N3CCC(n4ccnn4)C3)cc2)[nH]c(=O)c(C(=O)O)c1O (centres unmarked) [Cpd 287, 5-ethyl-4-hydroxy-2-oxo-6-{4-[3-(1H-1,2,3-triazol-1-yl)pyrrolidin-1-yl]phenyl}-1,2-dihydropyridine-3-carboxylic acid]	< 1	1 to 3.5 (≈ 2.53 to 8.85 µM)	3.5 to 12.5 (≈ 8.85 to 31.6 µM)	12.5 to 150 (≈ 31.6 to 379 µM)	–	–	–
CCc1c(-c2ccc(N3CCC(C)(O)C3)cc2)[nH]c(=O)c(C(=O)O)c1O (centres unmarked) [Cpd 289, 5-ethyl-4-hydroxy-6-[4-(3-hydroxy-3-methylpyrrolidin-1-yl)phenyl]-2-oxo-1,2-dihydropyridine-3-carboxylic acid]	< 1	1 to 3.5 (≈ 2.79 to 9.77 µM)	1 to 3.5 (≈ 2.79 to 9.77 µM)	12.5 to 150 (≈ 34.9 to 419 µM)	–	–	–
CCc1c(-c2ccc(N3CCC(N(C)C)C3)cc2F)[nH]c(=O)c(C(=O)O)c1O (centres unmarked) [Cpd 291, 6-{4-[3-(dimethylamino)pyrrolidin-1-yl]-2-fluorophenyl}-5-ethyl-4-hydroxy-2-oxo-1,2-dihydropyridine-3-carboxylic acid]	1 to 3.5 (≈ 2.57 to 8.99 µM)	3.5 to 12.5 (≈ 8.99 to 32.1 µM)	12.5 to 150 (≈ 32.1 to 385 µM)	12.5 to 150 (≈ 32.1 to 385 µM)	–	–	–
CCc1c(-c2ccc(N3CC4CC3CN4C(=O)OC(C)(C)C)cc2)[nH]c(=O)c(C(=O)O)c1O (centres unmarked) [Cpd 294, 6-{4-[5-(tert-butoxycarbonyl)-2,5-diazabicyclo[2.2.1]hept-2-yl]phenyl}-5-ethyl-4-hydroxy-2-oxo-1,2-dihydropyridine-3-carboxylic acid]	–	12.5 to 150 (≈ 27.4 to 329 µM)	1 to 3.5 (≈ 2.2 to 7.68 µM)	12.5 to 150 (≈ 27.4 to 329 µM)	–	–	< 1
CCc1c(-c2ccc(N3CC4CC3CN4)cc2)[nH]c(=O)c(C(=O)O)c1O.O=C(O)C(F)(F)F (centres unmarked) [Cpd 295, 6-[4-(2,5-diazabicyclo[2.2.1]hept-2-yl)phenyl]-5-ethyl-4-hydroxy-2-oxo-1,2-dihydropyridine-3-carboxylic acid trifluoroacetate]	–	12.5 to 150	12.5 to 150	12.5 to 150	–	–	1 to 3.5
CCc1c(-c2ccc(N3CC4=CCCC[C@@H]4C3)cc2)[nH]c(=O)c(C(=O)O)c1O.Cl [Cpd 297, 5-ethyl-6-{4-[(3aS)-1,3,3a,4,5,6-hexahydro-2H-isoindol-2-yl]phenyl}-4-hydroxy-2-oxo-1,2-dihydropyridine-3-carboxylic acid hydrochloride]	< 1	12.5 to 150	3.5 to 12.5	12.5 to 150	–	–	–
CCc1cc(C(=O)O)c(=O)[nH]c1-c1cc(CN2CCCC2)n(C)c1 [Cpd 348, 5-ethyl-6-(1-methyl-5-(pyrrolidin-1-ylmethyl)-1H-pyrrol-3-yl)-2-oxo-1,2-dihydropyridine-3-carboxylic acid]	3.5 to 12.5 (≈ 10.6 to 37.9 µM)	12.5 to 150 (≈ 37.9 to 455 µM)	12.5 to 150 (≈ 37.9 to 455 µM)	12.5 to 150 (≈ 37.9 to 455 µM)	–	–	–
CCc1cc(C(=O)O)c(=O)[nH]c1-c1cc(CN2CCCCC2)n(C)c1 [Cpd 349, 5-ethyl-6-(1-methyl-5-(piperidin-1-ylmethyl)-1H-pyrrol-3-yl)-2-oxo-1,2-dihydropyridine-3-carboxylic acid]	12.5 to 150 (≈ 36.4 to 437 µM)	12.5 to 150 (≈ 36.4 to 437 µM)	12.5 to 150 (≈ 36.4 to 437 µM)	12.5 to 150 (≈ 36.4 to 437 µM)	–	–	–
CCc1cc(C(=O)O)c(=O)[nH]c1-c1ccc(CN2CCCC2)n1C [Cpd 350, 5-ethyl-6-(1-methyl-5-(pyrrolidin-1-ylmethyl)-1H-pyrrol-2-yl)-2-oxo-1,2-dihydropyridine-3-carboxylic acid]	12.5 to 150 (≈ 37.9 to 455 µM)	12.5 to 150 (≈ 37.9 to 455 µM)	12.5 to 150 (≈ 37.9 to 455 µM)	12.5 to 150 (≈ 37.9 to 455 µM)	–	–	–
CCc1cc(C(=O)O)c(=O)[nH]c1-c1ccc(CN(C)C)n1C [Cpd 351, 6-(5-((dimethylamino)methyl)-1-methyl-1H-pyrrol-2-yl)-5-ethyl-2-oxo-1,2-dihydropyridine-3-carboxylic acid]	12.5 to 150 (≈ 41.2 to 494 µM)	12.5 to 150 (≈ 41.2 to 494 µM)	12.5 to 150 (≈ 41.2 to 494 µM)	12.5 to 150 (≈ 41.2 to 494 µM)	–	–	–
CCc1cc(C(=O)O)c(=O)[nH]c1-c1ccc(CN2CCCCC2)n1C [Cpd 352, 5-ethyl-6-(1-methyl-5-(piperidin-1-ylmethyl)-1H-pyrrol-2-yl)-2-oxo-1,2-dihydropyridine-3-carboxylic acid]	12.5 to 150 (≈ 36.4 to 437 µM)	12.5 to 150 (≈ 36.4 to 437 µM)	12.5 to 150 (≈ 36.4 to 437 µM)	12.5 to 150 (≈ 36.4 to 437 µM)	–	–	–
CCc1cc(C(=O)O)c(=O)[nH]c1-c1ccc(CN2CCC(N(C)C)C2)n1C (centres unmarked) [Cpd 353, 6-(5-((3-(dimethylamino)pyrrolidin-1-yl)methyl)-1-methyl-1H-pyrrol-2-yl)-5-ethyl-2-oxo-1,2-dihydropyridine-3-carboxylic acid]	12.5 to 150 (≈ 33.6 to 403 µM)	12.5 to 150 (≈ 33.6 to 403 µM)	12.5 to 150 (≈ 33.6 to 403 µM)	12.5 to 150 (≈ 33.6 to 403 µM)	–	–	–
